Assay results taken from patent publication US7442802B2, “Cyclooxygenase-2 selective inhibitors, compositions and methods of use” (NitroMed, Inc., priority 2002, dated 2008).
Read-outs that look alike come from different tables or passages of the source.

How the values were obtained:
[1] = target: T1, COX-1 (Homo sapiens, UniProt P23219); assay: Human COX-1 enzyme activity in human whole blood (A23187-stimulated, thromboxane B2 EIA); type: cell-based; settings: for inhibition at 100 µM: read-out: COX-1 Inhibition (% at 100 μM)
T1 construct: endogenous in cells; host or cells: heparinised human whole blood from donors, stimulated with the calcium ionophore A23187
T1 sequence (P23219 24-599): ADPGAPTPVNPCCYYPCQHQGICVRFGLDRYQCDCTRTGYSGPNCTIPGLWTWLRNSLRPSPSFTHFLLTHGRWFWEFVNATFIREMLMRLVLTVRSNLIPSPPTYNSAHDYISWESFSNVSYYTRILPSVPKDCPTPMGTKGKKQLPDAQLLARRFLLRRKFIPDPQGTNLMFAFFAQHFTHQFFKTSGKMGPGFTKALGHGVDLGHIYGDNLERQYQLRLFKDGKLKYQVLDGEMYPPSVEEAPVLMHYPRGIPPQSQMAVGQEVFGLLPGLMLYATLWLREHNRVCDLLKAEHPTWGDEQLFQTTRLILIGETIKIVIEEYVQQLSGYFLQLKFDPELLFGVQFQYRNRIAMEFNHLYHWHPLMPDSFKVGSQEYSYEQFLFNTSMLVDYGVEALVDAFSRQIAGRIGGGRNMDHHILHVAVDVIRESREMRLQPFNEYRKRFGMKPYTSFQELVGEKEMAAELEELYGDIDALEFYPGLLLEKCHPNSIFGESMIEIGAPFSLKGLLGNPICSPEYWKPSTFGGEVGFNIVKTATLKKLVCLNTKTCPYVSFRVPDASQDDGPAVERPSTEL
Method: (§1) The blood was transported to the laboratory on ice packs and used within 1.5 hours of collection. Upon receipt in the laboratory, the blood was allowed to come to room temperature for 15 minutes prior to distribution in 1 mL aliquots per well of 24 well tissue culture plates. […] Test compounds were dissolved in DMSO, at 1000 fold the final desired concentration, and further diluted, as indicated, in DMSO. One μL of each dilution of the test compound was added per well, in duplicate wells; wells not receiving test compound (e.g., basal, background or control wells) received 1 μL DMSO. […] Louis, Mo., Catalogue No. […] Louis, Mo., Catalogue No. […] (Again, basal, background or control wells not stimulated with A23187 received 1 μL of DMSO.) At 5 hours after the addition of the test compound, all incubations were terminated by placement on ice and the addition of 2 mM EGTA (100 μL of 20 mM EGTA, tetrasodium, in PBS (phosphate buffered saline) without Ca^++ and Mg^++, pH 7.2)). […] One hundred μL of plasma was removed from each blood sample and added to 1 mL of methanol in new 15 mL polypropylene centrifuge tubes, vortexed, and stored overnight at -20° C. […] The samples were assayed for thromboxane B2 using EIA kits supplied by Cayman Chemical Co. […] The % inhibition for COX-1 and COX-2 enzyme activity in human whole blood by the test compounds, at the indicated concentrations, are given in Table 1.

[2] = target: T2, COX-2 (Homo sapiens, UniProt P35354); assay: Human COX-2 enzyme activity in human whole blood (LPS-induced, thromboxane B2 EIA); type: cell-based; settings: for inhibition at 1 µM: read-out: COX-2 Inhibition (% at 1 μM); for inhibition at 10 µM: read-out: COX-2 Inhibition (% at 10 μM)
T2 construct: To induce COX-2, lipopolysaccharide (LPS) from E. coli; endogenous in cells; host or cells: heparinised human whole blood from donors, with COX-2 induced by E. coli LPS
T2 sequence (P35354 18-604): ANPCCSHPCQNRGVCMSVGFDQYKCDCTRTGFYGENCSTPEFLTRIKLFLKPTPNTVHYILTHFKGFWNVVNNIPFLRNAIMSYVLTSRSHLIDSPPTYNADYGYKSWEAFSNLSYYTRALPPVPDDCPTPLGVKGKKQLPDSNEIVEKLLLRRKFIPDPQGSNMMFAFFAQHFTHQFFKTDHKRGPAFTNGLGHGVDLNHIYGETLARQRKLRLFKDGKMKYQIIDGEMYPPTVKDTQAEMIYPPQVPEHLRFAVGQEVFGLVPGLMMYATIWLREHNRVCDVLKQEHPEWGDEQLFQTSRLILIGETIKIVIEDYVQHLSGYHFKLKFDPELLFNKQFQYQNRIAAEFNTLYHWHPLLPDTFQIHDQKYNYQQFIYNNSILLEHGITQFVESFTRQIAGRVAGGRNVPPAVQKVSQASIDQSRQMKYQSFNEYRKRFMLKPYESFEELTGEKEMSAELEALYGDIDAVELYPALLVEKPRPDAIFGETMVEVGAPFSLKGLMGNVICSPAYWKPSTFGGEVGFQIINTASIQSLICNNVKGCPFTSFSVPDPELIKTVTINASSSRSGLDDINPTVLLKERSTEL
Method: as §1

[3] = 100 μM, human whole blood, A23187 stimulation
[4] = 1 μM, human whole blood, LPS induction
[5] = 10 μM, human whole blood, LPS induction

Row | inhibition at 100 µM [1, 3] [%] | inhibition at 1 µM [2, 4] [%] | inhibition at 10 µM [2, 5] [%] | Compound | COX-1 Inhibition (% at 100 μM) [1, 3] [%] | COX-2 Inhibition (% at 1 μM) [2, 4] [%] | COX-2 Inhibition (% at 10 μM) [2, 5] [%] | other results
1 |  |  |  | NS(=O)(=O)c1ccc(-c2c(-c3ccccc3)noc2COCC(F)(F)C(F)(F)C(F)(F)CO)cc1 [Example 34a, 4-(5-((2,2,3,3,4,4-Hexafluoro-5-hydroxypentyloxy)methyl)-3-phenylisoxazol-4-yl)benzenesulfonamide] |  |  |  | inhibition at 100 µM [1]: 95%; inhibition at 1 µM [2]: 90%; inhibition at 10 µM [2]: 100%
2 | 90 | 95 | 100 | CS(=O)(=O)c1ccc(-c2cc(/C=C\CCO[N+](=O)[O-])nn2-c2ccccc2)cc1 [Example 11e, 1-(3-((1Z)-4-(Nitrooxy)but-1-enyl)-1-phenylpyrazol-5-yl)-4-(methylsulfonyl)benzene] |  |  |  | 
3 |  |  |  | NS(=O)(=O)c1ccc(-c2c(-c3ccccc3)noc2COCCO)cc1 [Example 27a] | 45 | 40 | 90 | 
4 |  |  |  | 4-(5-(4-Chlorophenyl)-3-((3-hydroxypropoxy)methyl)pyrazolyl)-benzenesulfonamide [Example 36b] | 30 | 30 | 55 | 
5 |  |  |  | NS(=O)(=O)c1ccc(-c2c(-c3ccccc3)noc2COCCCO)cc1 [Example 26a] | 25 | 50 | 85 | 
6 | 60 | 45 | 90 | CS(=O)(=O)c1ccc(-c2cc(/C=C/CCO[N+](=O)[O-])nn2C2CCCCC2)cc1 [Example 21c, 1-(3-((1E)-4-(Nitrooxy)but-1-enyl)-1-cyclohexylpyrazol-5-yl)-4-(methylsulfonyl)benzene] |  |  |  | 
7 |  |  |  | CS(=O)(=O)c1ccc(-c2cc(CO[N+](=O)[O-])nn2C2CCCCCCC2)cc1 [Example 1h] | 60 | 50 | 90 | 
8 |  |  |  | NS(=O)(=O)c1ccc(-c2c(-c3ccccc3)noc2COCC(F)(F)C(F)(F)CO)cc1 [Example 33a] | 75 | 40 | 100 | 
9 |  |  |  | CS(=O)(=O)c1ccc(-c2cc(CO)nn2C2CCCCCCC2)cc1 [Example 1g] | 35 | 35 | 75 | 
10 |  |  |  | CS(=O)(=O)c1ccc(-c2cc(/C=C\CCO)nn2C2CCCCC2)cc1 [Example 4e, 1-(3-((1Z)-4-(Hydroxy)but-1-enyl)-1-cyclohexylpyrazol-5-yl-4-methylsulfonyl)benzene] | 45 | 30 | 70 | 
11 |  |  |  | 4-(5-(4-Chlorophenyl)-3-((3-hydroxypropoxy)methyl)pyrazolyl)benzenesulfonamide [Example 28a] | 30 | 30 | 55 | 
12 |  |  |  | NS(=O)(=O)c1ccc(-c2c(-c3ccccc3)noc2COCCS(=O)(=O)CCO[N+](=O)[O-])cc1 [Example 37c] | −15 | 20 | 20 | 
13 | 40 | 0 | 45 | CS(=O)(=O)c1ccc(-c2cc(/C=C/CO[N+](=O)[O-])nn2C2CCCCC2)cc1 [Example 41, 1-(3-((1E)-3-(Nitrooxy)prop-1-enyl)-1-cyclohexylpyrazol-5-yl)-4-(methylsulfonyl)benzene] |  |  |  | 
14 | 80 | 50 | 95 | CS(=O)(=O)c1ccc(-c2cc(C(F)(F)OCCCO[N+](=O)[O-])nn2-c2ccccc2)cc1 [Example 6f, 1-(3-(Difluoro(3-(nitrooxy)propoxy)methyl)-1-phenylpyrazol-5-yl)-4-(methylsulfonyl)benzene] |  |  |  | 
15 | 80 | 25 | 95 | CS(=O)(=O)c1ccc(-c2cc(COCCCO)nn2-c2ccc(Cl)cc2)cc1 [Example 7d, 1-(1-(4-Chlorophenyl)-3-((3-hydroxypropoxy)methyl)pyrazol-5-yl)-4-(methylsulfonyl)benzene] |  |  |  | 
16 |  |  |  | NS(=O)(=O)c1ccc(-c2c(-c3ccccc3)noc2COCCCO[N+](=O)[O-])cc1 [Example 26b] | 70 | 55 | 100 | 
17 | 10 | 45 | 85 | CS(=O)(=O)c1ccc(-c2cc(COCCCO[N+](=O)[O-])nn2C2CCCCC2)cc1 [Example 16c, 1-(1-Cyclohexyl-3-((3-(nitrooxy)propoxy)methyl)pyrazol-5-yl)-4-(methylsulfonyl)benzene] |  |  |  | 
18 | -20 | 0 | 10 | CS(=O)(=O)c1ccc(-c2cc(C(=O)CCCO)nn2-c2ccc(C(F)(F)F)cc2)cc1 [Example 23d, 4-Hydroxy-1-(5-(4-(methylsulfonyl)phenyl)-1-(4-(trifluoromethyl)-phenyl)pyrazol-3-yl)butan-1-one] |  |  |  | 
19 | 100 | 25 | 100 | COc1ccc(-n2nc(COCCCO)cc2-c2ccc(S(C)(=O)=O)cc2)cc1 [Example 10d, 1-(3-((3-Hydroxypropoxy)methyl)-1-(4-methoxyphenyl)pyrazol-5-yl)-4-(methylsulfonyl)benzene] |  |  |  | 
20 |  |  |  | NS(=O)(=O)c1ccc(-c2c(-c3ccccc3)noc2COCC(F)(F)CO[N+](=O)[O-])cc1 [Example 32d, 4-(5-((2,2-Difuoro-3-(nitrooxy)propoxy)methyl)-3-phenylisoxazol-4-yl)benzenesulfoamide] | 0 | 20 | 85 | 
21 | 35 | 35 | 75 | CS(=O)(=O)c1ccc(-c2cc(COCCO[N+](=O)[O-])nn2C2CCCCC2)cc1 [Example 15e, 1-(1-Cyclohexyl-3-((2-(nitrooxy)ethoxy)methyl)pyrazol-5-yl)-4-(methylsulfonyl)benzene] |  |  |  | 
22 |  |  |  | COc1ccc(-n2nc(COCCCO[N+](=O)[O-])cc2-c2ccc(S(C)(=O)=O)cc2)cc1[N+](=O)[O-] [Example 10e, 1-(1-(4-Methoxy-3-nitrophenyl)-3-((3-(nitrooxy)propoxy)methyl)pyrazol-5-yl)-4-(methylsulfonyl)benzene] |  |  |  | inhibition at 100 µM [1]: 85%; inhibition at 1 µM [2]: 70%; inhibition at 10 µM [2]: 100%
23 | 0 | 15 | 70 | CS(=O)(=O)c1ccc(-c2cc(C(=O)CCCO)nn2-c2ccc(Br)cc2)cc1 [Example 14d, 1-(1-(4-Bromophenyl)-5-(4-(methylsulfonyl)phenyl)pyrazol-3-yl)-4-hydroxybutan-1-one] |  |  |  | 
24 | 10 | 0 | 15 | CS(=O)(=O)c1ccc(-c2cc(/C=C/CO)nn2C2CCCCC2)cc1 [Example 31c, 4-(3-((1E)-3-Hydroxyprop-1-enyl)-1-cyclohexylpyrazol-5-yl)-1(methylsulfonyl)benzene] |  |  |  | 

Row | Compound | inhibition at 100 µM [1, 3] [%] | inhibition at 1 µM [2, 4] [%] | inhibition at 10 µM [2, 5] [%] | COX-1 Inhibition (% at 100 μM) [1, 3] [%] | COX-2 Inhibition (% at 1 μM) [2, 4] [%] | COX-2 Inhibition (% at 10 μM) [2, 5] [%] | other results
25 | CC(O)CCOCc1cc(-c2ccc(S(C)(=O)=O)cc2)n(-c2ccccc2)n1 (stereo not drawn) [Example 19b, 1-(3-((3-Hydroxybutoxy)methyl)-1-phenylpyrazol-5-yl)-4-(methylsulfonyl)benzene] | 40 | 20 | 100 |  |  |  | 
